Source: PubChem BioAssay (NCI)
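Briefly, cells in 96-well plates were exposed to five compound concentrations for 48 h, and endpoints were estimated by linear interpolation. GI50 = concentration required for 50% inhibition of growth. TGI marks complete inhibition of growth.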

What was measured:
Assay in all cases: inhibition of tumour cell growth, NCI panel, 48 h; in the data active means GI50 below about 0.43 µM; inactive means the rest
786-0 renal = system: 786-0 renal
A498 renal = system: A498 renal
A549 NSCLC = system: A549 NSCLC
ACHN renal = system: ACHN renal
BT-549 breast = system: BT-549 breast
CAKI-1 renal = system: CAKI-1 renal
CCRF-CEM leukemia = system: CCRF-CEM leukemia
COLO 205 colon = system: COLO 205 colon
DU-145 prostate = system: DU-145 prostate
EKVX NSCLC = system: EKVX NSCLC
HCC-2998 colon = system: HCC-2998 colon
HCT-116 colon = system: HCT-116 colon
HCT-15 colon = system: HCT-15 colon
HOP-62 NSCLC = system: HOP-62 NSCLC
HOP-92 NSCLC = system: HOP-92 NSCLC
HS 578T breast = system: HS 578T breast
HT29 colon = system: HT29 colon
IGROV1 ovarian = system: IGROV1 ovarian
K-562 leukemia = system: K-562 leukemia
KM12 colon = system: KM12 colon
LOX IMVI melanoma = system: LOX IMVI melanoma
M14 melanoma = system: M14 melanoma
MALME-3M melanoma = system: MALME-3M melanoma
MCF7 breast = system: MCF7 breast
MDA-MB-231 breast = system: MDA-MB-231 breast
MDA-MB-435 = system: MDA-MB-435
NCI-H226 lung = system: NCI-H226 lung
NCI-H23 lung = system: NCI-H23 lung
NCI-H460 lung = system: NCI-H460 lung
NCI-H522 lung = system: NCI-H522 lung
NCI/ADR-RES ovarian = system: NCI/ADR-RES ovarian
OVCAR-3 ovarian = system: OVCAR-3 ovarian
OVCAR-4 ovarian = system: OVCAR-4 ovarian
OVCAR-5 ovarian = system: OVCAR-5 ovarian
OVCAR-8 ovarian = system: OVCAR-8 ovarian
PC-3 prostate = system: PC-3 prostate
RPMI-8226 leukemia = system: RPMI-8226 leukemia
RXF 393 renal = system: RXF 393 renal
SF-268 CNS = system: SF-268 CNS
SF-295 CNS = system: SF-295 CNS
SF-539 CNS = system: SF-539 CNS
SK-MEL-2 melanoma = system: SK-MEL-2 melanoma
SK-MEL-28 melanoma = system: SK-MEL-28 melanoma
SK-MEL-5 melanoma = system: SK-MEL-5 melanoma
SK-OV-3 ovarian = system: SK-OV-3 ovarian
SN12C renal = system: SN12C renal
SNB-19 CNS = system: SNB-19 CNS
SNB-75 CNS = system: SNB-75 CNS
SR leukemia = system: SR leukemia
SW-620 colon = system: SW-620 colon
T-47D breast = system: T-47D breast
TK-10 renal = system: TK-10 renal
U251 CNS = system: U251 CNS
UACC-257 melanoma = system: UACC-257 melanoma
UACC-62 melanoma = system: UACC-62 melanoma
UO-31 renal = system: UO-31 renal
HL-60(TB) leukemia = system: HL-60(TB) leukemia
MOLT-4 leukemia = system: MOLT-4 leukemia

[N-]=[N+]=NCCCn1c2c(c3ccc([N+](=O)[O-])cc3c1=O)C(=O)c1cc(-c3ccccc3)ccc1-2
> 100 µM: TGI (786-0 renal) | TGI (A498 renal) | TGI (A549 NSCLC) | TGI (ACHN renal) | TGI (BT-549 breast) | TGI (CAKI-1 renal) | TGI (CCRF-CEM leukemia) | TGI (COLO 205 colon) | TGI (DU-145 prostate) | TGI (EKVX NSCLC) | TGI (HCC-2998 colon) | TGI (HCT-116 colon) | TGI (HCT-15 colon) | TGI (HOP-62 NSCLC) | TGI (HOP-92 NSCLC) | TGI (HS 578T breast) | TGI (HT29 colon) | TGI (IGROV1 ovarian) | TGI (K-562 leukemia) | TGI (KM12 colon) | TGI (LOX IMVI melanoma) | TGI (M14 melanoma) | TGI (MALME-3M melanoma) | TGI (MCF7 breast) | TGI (MDA-MB-231 breast) | TGI (MDA-MB-435) | TGI (NCI-H226 lung) | TGI (NCI-H23 lung) | TGI (NCI-H460 lung) | TGI (NCI-H522 lung) | TGI (NCI/ADR-RES ovarian) | TGI (OVCAR-3 ovarian) | TGI (OVCAR-4 ovarian) | TGI (OVCAR-5 ovarian) | TGI (OVCAR-8 ovarian) | TGI (PC-3 prostate) | TGI (RPMI-8226 leukemia) | TGI (RXF 393 renal) | TGI (SF-268 CNS) | TGI (SF-295 CNS) | TGI (SF-539 CNS) | TGI (SK-MEL-2 melanoma) | TGI (SK-MEL-28 melanoma) | TGI (SK-MEL-5 melanoma) | TGI (SK-OV-3 ovarian) | TGI (SN12C renal) | TGI (SNB-19 CNS) | TGI (SNB-75 CNS) | TGI (SR leukemia) | TGI (SW-620 colon) | TGI (T-47D breast) | TGI (TK-10 renal) | TGI (U251 CNS) | TGI (UACC-257 melanoma) | TGI (UACC-62 melanoma) | TGI (UO-31 renal)
inactive: GI50 (786-0 renal) > 100 µM | GI50 (A498 renal) > 100 µM | GI50 (A549 NSCLC) > 100 µM | GI50 (ACHN renal) > 100 µM | GI50 (BT-549 breast) > 100 µM | GI50 (CAKI-1 renal) > 100 µM | GI50 (CCRF-CEM leukemia) > 100 µM | GI50 (COLO 205 colon) > 100 µM | GI50 (DU-145 prostate) > 100 µM | GI50 (EKVX NSCLC) > 100 µM | GI50 (HCC-2998 colon) > 100 µM | GI50 (HCT-116 colon) > 100 µM | GI50 (HCT-15 colon) > 100 µM | GI50 (HOP-62 NSCLC) > 100 µM | GI50 (HOP-92 NSCLC) > 100 µM | GI50 (HS 578T breast) 56.5 µM | GI50 (HT29 colon) > 100 µM | GI50 (IGROV1 ovarian) > 100 µM | GI50 (KM12 colon) > 100 µM | GI50 (LOX IMVI melanoma) > 100 µM | GI50 (M14 melanoma) > 100 µM | GI50 (MALME-3M melanoma) > 100 µM | GI50 (MCF7 breast) > 100 µM | GI50 (MDA-MB-231 breast) > 100 µM | GI50 (MDA-MB-435) > 100 µM | GI50 (NCI-H226 lung) > 100 µM | GI50 (NCI-H23 lung) > 100 µM | GI50 (NCI-H460 lung) > 100 µM | GI50 (NCI-H522 lung) > 100 µM | GI50 (NCI/ADR-RES ovarian) > 100 µM | GI50 (OVCAR-3 ovarian) > 100 µM | GI50 (OVCAR-4 ovarian) > 100 µM | GI50 (OVCAR-5 ovarian) > 100 µM | GI50 (OVCAR-8 ovarian) > 100 µM | GI50 (PC-3 prostate) > 100 µM | GI50 (RPMI-8226 leukemia) > 100 µM | GI50 (RXF 393 renal) > 100 µM | GI50 (SF-268 CNS) > 100 µM | GI50 (SF-295 CNS) > 100 µM | GI50 (SF-539 CNS) > 100 µM | GI50 (SK-MEL-2 melanoma) > 100 µM | GI50 (SK-MEL-28 melanoma) > 100 µM | GI50 (SK-MEL-5 melanoma) 89 µM | GI50 (SK-OV-3 ovarian) > 100 µM | GI50 (SN12C renal) > 100 µM | GI50 (SNB-19 CNS) > 100 µM | GI50 (SNB-75 CNS) 43.3 µM | GI50 (SR leukemia) 37.2 µM | GI50 (SW-620 colon) > 100 µM | GI50 (T-47D breast) > 100 µM | GI50 (TK-10 renal) > 100 µM | GI50 (U251 CNS) > 100 µM | GI50 (UACC-257 melanoma) > 100 µM | GI50 (UACC-62 melanoma) > 100 µM | GI50 (UO-31 renal) > 100 µM

O=C1C=C(OCC=C(C(F)(F)F)C(F)(F)F)c2ccccc2C1=O
14.7 µM: TGI (NCI/ADR-RES ovarian)
3.3 µM: TGI (MDA-MB-435)
13.9 µM: TGI (786-0 renal)
4.29 µM: TGI (RPMI-8226 leukemia)
3.17 µM: TGI (DU-145 prostate)
3.1 µM: TGI (UO-31 renal)
4.73 µM: TGI (COLO 205 colon)
2.92 µM: TGI (NCI-H522 lung)
3.94 µM: TGI (MCF7 breast)
27 µM: TGI (A549 NSCLC)
10.4 µM: TGI (CAKI-1 renal)
3.18 µM: TGI (RXF 393 renal)
3.73 µM: TGI (HCC-2998 colon)
3.87 µM: TGI (M14 melanoma)
3.39 µM: TGI (OVCAR-3 ovarian)
3.12 µM: TGI (OVCAR-8 ovarian)
2.37 µM: TGI (SN12C renal)
inactive: GI50 (786-0 renal) 3.97 µM | GI50 (A498 renal) 4.36 µM | GI50 (A549 NSCLC) 5.91 µM | GI50 (ACHN renal) 1.85 µM | GI50 (BT-549 breast) 2.49 µM | GI50 (CAKI-1 renal) 3.15 µM | GI50 (CCRF-CEM leukemia) 1.17 µM | GI50 (COLO 205 colon) 2.11 µM | GI50 (DU-145 prostate) 1.75 µM | GI50 (HCC-2998 colon) 1.84 µM | GI50 (HCT-116 colon) 2.07 µM | GI50 (HCT-15 colon) 2.06 µM | GI50 (HL-60(TB) leukemia) 2.44 µM | GI50 (HOP-62 NSCLC) 1.87 µM | GI50 (HOP-92 NSCLC) 1.9 µM | GI50 (HS 578T breast) 2.06 µM | GI50 (HT29 colon) 2.4 µM | GI50 (K-562 leukemia) 1.97 µM | GI50 (KM12 colon) 1.67 µM | GI50 (LOX IMVI melanoma) 1.56 µM | GI50 (M14 melanoma) 1.88 µM | GI50 (MALME-3M melanoma) 1.56 µM | GI50 (MCF7 breast) 1.39 µM | GI50 (MDA-MB-231 breast) 1.9 µM | GI50 (MDA-MB-435) 1.74 µM | GI50 (MOLT-4 leukemia) 2.35 µM | GI50 (NCI-H522 lung) 1.41 µM | GI50 (NCI/ADR-RES ovarian) 3.21 µM | GI50 (OVCAR-3 ovarian) 1.78 µM | GI50 (OVCAR-4 ovarian) 1.53 µM | GI50 (OVCAR-5 ovarian) 2.45 µM | GI50 (OVCAR-8 ovarian) 1.63 µM | GI50 (PC-3 prostate) 1.92 µM | GI50 (RPMI-8226 leukemia) 1.63 µM | GI50 (RXF 393 renal) 1.69 µM | GI50 (SF-268 CNS) 2.53 µM | GI50 (SF-295 CNS) 14.6 µM | GI50 (SF-539 CNS) 1.84 µM | GI50 (SK-MEL-2 melanoma) 1.85 µM | GI50 (SK-MEL-28 melanoma) 1.87 µM | GI50 (SK-MEL-5 melanoma) 1.51 µM | GI50 (SK-OV-3 ovarian) 3.45 µM | GI50 (SN12C renal) 1.09 µM | GI50 (SNB-19 CNS) 5.62 µM | GI50 (SR leukemia) 2.02 µM | GI50 (SW-620 colon) 1.92 µM | GI50 (T-47D breast) 0.777 µM | GI50 (U251 CNS) 1.84 µM | GI50 (UACC-257 melanoma) 1.42 µM | GI50 (UACC-62 melanoma) 1.7 µM | GI50 (UO-31 renal) 1.53 µM
3.25 µM: TGI (KM12 colon)
3.7 µM: TGI (T-47D breast)
16.6 µM: TGI (A498 renal)
30.3 µM: TGI (SF-295 CNS)
4.1 µM: TGI (UACC-62 melanoma)
6.49 µM: TGI (HL-60(TB) leukemia)
3.69 µM: TGI (HOP-62 NSCLC)
12 µM: TGI (SK-OV-3 ovarian)
4.01 µM: TGI (ACHN renal)
5.7 µM: TGI (HCT-15 colon)
5.38 µM: TGI (MOLT-4 leukemia)
2.77 µM: TGI (UACC-257 melanoma)
19.5 µM: TGI (SNB-19 CNS)
5.42 µM: TGI (K-562 leukemia)
3.63 µM: TGI (SF-539 CNS)
7.21 µM: TGI (HS 578T breast)
2.95 µM: TGI (SK-MEL-5 melanoma)
4.2 µM: TGI (MDA-MB-231 breast)
3.83 µM: TGI (U251 CNS)
4.06 µM: TGI (SK-MEL-2 melanoma)
4.37 µM: TGI (HOP-92 NSCLC)
3.46 µM: TGI (LOX IMVI melanoma)
2.91 µM: TGI (OVCAR-4 ovarian)
5.22 µM: TGI (CCRF-CEM leukemia)
3.11 µM: TGI (MALME-3M melanoma)
5.08 µM: TGI (HCT-116 colon)
5.47 µM: TGI (HT29 colon)
3.61 µM: TGI (SK-MEL-28 melanoma)
6.64 µM: TGI (BT-549 breast)
5.91 µM: TGI (PC-3 prostate)
5.87 µM: TGI (OVCAR-5 ovarian)
3.91 µM: TGI (SW-620 colon)
7.43 µM: TGI (SR leukemia)
7.42 µM: TGI (SF-268 CNS)
